Assay results reported in patent US7799530B2, “Genetic polymorphisms associated with cardiovascular disorders and drug response, methods of detection and uses thereof” (Celera Corporation, priority 2005, dated 2010).

System: recurrent myocardial infarction (RMI) in CARE patients
Test: CARE trial: recurrent MI in pravastatin- vs placebo-treated patients stratified by SNP genotype
Type: in vivo, human
Details: for HR, on-trial MI, Unadjusted: placebo = ref 1.00; for HR, on-trial MI, Adjusted: placebo = ref 1.00, adjusted for age, smoking, hypertension, diabetes, BMI, LDL-C, HDL-C; for OR_dom, risk of RMI / OR_het, risk of RMI / OR_maj, risk of RMI / OR_min, risk of RMI / OR, risk of RMI: placebo- vs. pravastatin-treated patients; for Risk Reduction by Statin (Pravastatin vs. Placebo) OR: odds ratio of recurrent MI, pravastatin- vs placebo-treated, heterozygous carriers of hCV3054799 only
Source text: In order to identify genetic markers associated with acute coronary events (e.g. MI, stroke, unstable angina, congestive heart failure, etc.) or response to statin treatment for the prevention of coronary events, samples were genotyped in two clinical trials: the Cholesterol and Recurrent Events (CARE) study (a randomized multicentral double-blinded trial on secondary prevention of acute coronary events with pravastatin; Sacks et al., Am. J. Cardiol. 68: 1436-1446[1991]), and the West of Scotland Coronary Prevention Study (WOSCOPS) study (Shepherd et al., N Eng J Med 333 (20), pp. 1301-7, Nov. 16, 1995; Packard et al., N Eng J Med 343 (16), pp. 1148-55, Oct. 19, 2000).
A well-documented myocardial infarction (MI) was one of the enrollment criteria for entry into the CARE study. Patients were enrolled in the CARE trial from 80 participating study centers. […] Patients were randomized to receive either 40 mg of pravastatin once daily or a matching placebo. The primary endpoint of the trial was death from coronary heart disease and the median duration of follow-up was 5.0 years (range, 4.0 to 6.2 years). All individuals included in the study had signed informed consent forms and the study protocol was approved by the respective Institutional Review Boards (IRBs).
For genotyping SNPs in CARE patient samples, DNA was extracted from blood samples using conventional DNA extraction methods such as the QIAamp kit from Qiagen. Genotypes were obtained by a method similar to that described by Lannone (M. A. Lannone et al., Cytometry 39(2):131-140 [Feb. 1, 2000]; also described in section “SNP DETECTION REAGENTS,” supra). Briefly, target DNA was amplified by multiplex PCR, the amplified product was submitted to a multiplex oligo ligation assay (OLA), the specific ligated products were hybridized to unique universal “ZIP code” oligomer sequences covalently attached to Luminex xMAP® Multi-Analyte COOH Microspheres, and these hybridization products/microspheres were detected in a rapid automated multiplex system using the Luminex 100 instrument. Alternatively, allele specific primers were designed for detecting each SNP and genotypes were obtained on an ABI PRISM® 7900HT Sequence Detection PCR system (Applied Biosystems) by allele-specific PCR, similar to the method described by Germer et al (Germer S., Holland M. J., Higuchi R. 2000, Genome Res. 10: 258-266). […]
In analyzing the CARE patients, statistical analysis was performed with SAS version 9. Cox proportional hazard models (Wald tests) were used in CARE to assess the association of genotype with both the risk of incident MI in the placebo arm and the effect of on MI pravastatin compared to placebo in subgroups defined by genotypes. In analyzing the WOSCOPS patients, a conditional logistic regression model was used in WOSCOPS given that the controls had been previously matched to the cases. The column entitled “On-trial MI” lists the number of patients who suffered an RMI during the clinical trial period.
An additional 175 markers were analyzed in samples from the CARE study (secondary MI prevention trial). […] Of the cases, 150 received placebo treatment and 114 received pravastatin; of the controls, 1290 received placebo and 1359 received pravastatin.
The genotypes for each SNP were tested for association with RMI. This genotypic test of association (i.e., minor homozygote genotype vs. major, and heterozygote vs. major) was performed separately for placebo-treated patients and for all patients unstratified by treatment group, using the Fisher's exact method. […] The reliability of the OR for each particular SNP is confirmed by its respective 95% confidence interval (CI) and P value, also shown. From Table 14 one can see the association of several SNPs with MI risk when they are present in a Homozygous Minor genotype (association based on an OR>1, the lower limit of the 95% CI>1 and a P value <0.05). […]

[1] = marker hCV2741051, heterozygous
[2] = marker hCV2741051, major homozygous
[3] = marker hCV2741051, minor homozygous
[4] = marker hCV25745415, heterozygous
[5] = marker hCV25745415, major homozygous
[6] = marker hCV25745415, minor homozygous

CC[C@H](C)C(=O)O[C@H]1C[C@H](O)C=C2C=C[C@H](C)[C@H](CC[C@@H](O)C[C@@H](O)CC(=O)O)[C@H]21 [pravastatin]
HR, on-trial MI, Unadjusted (KIF6 hCV3054799 AA): 0.86 | HR, on-trial MI, Adjusted (KIF6 hCV3054799 AA): 0.80 | HR, on-trial MI, Unadjusted (KIF6 hCV3054799 GG + GA): 0.63 | HR, on-trial MI, Adjusted (KIF6 hCV3054799 GG + GA): 0.63 | OR_dom, risk of RMI (marker hCV465412, Dominant): 0.50 | OR_het, risk of RMI (marker hCV465412, Heterozygous): 0.47 | OR_maj, risk of RMI (marker hCV465412, Major Homozygous): 0.80 | OR_min, risk of RMI (marker hCV465412, Minor Homozygous): 1.35 | OR, risk of RMI (marker hCV881283, heterozygous): 0.19 | OR, risk of RMI (marker hCV881283, major homozygous): 0.76 | OR, risk of RMI (marker hCV881283, minor homozygous): 0.00 | OR, risk of RMI (marker hCV1603656, heterozygous): 0.33 | OR, risk of RMI (marker hCV1603656, major homozygous): 0.87 | OR, risk of RMI (marker hCV1603656, minor homozygous): 0.00 | OR_dom, risk of RMI (marker hCV2741051, Dominant): 1.07 | OR, risk of RMI [1]: 1.02 | OR_het, risk of RMI [1]: 1.02 | OR, risk of RMI [2]: 0.55 | OR_maj, risk of RMI [2]: 0.55 | OR, risk of RMI [3]: 1.68 | OR_min, risk of RMI [3]: 1.68 | OR_dom, risk of RMI (marker hCV3054799, Dominant): 0.65 | OR_het, risk of RMI (marker hCV3054799, Heterozygous): 0.57 | OR_maj, risk of RMI (marker hCV3054799, Major Homozygous): 0.98 | OR_min, risk of RMI (marker hCV3054799, Minor Homozygous): 1.00 | OR_dom, risk of RMI (marker hCV7514870, Dominant): 0.69 | OR_het, risk of RMI (marker hCV7514870, Heterozygous): 0.83 | OR_maj, risk of RMI (marker hCV7514870, Major Homozygous): 0.80 | OR_min, risk of RMI (marker hCV7514870, Minor Homozygous): 0.37 | OR_dom, risk of RMI (marker hCV11450617, Dominant): 0.62 | OR_het, risk of RMI (marker hCV11450617, Heterozygous): 0.61 | OR_maj, risk of RMI (marker hCV11450617, Major Homozygous): 0.78 | OR_min, risk of RMI (marker hCV11450617, Minor Homozygous): 0.68 | OR, risk of RMI (marker hCV12107274, heterozygous): 0.78 | OR, risk of RMI (marker hCV12107274, major homozygous): 0.55 | OR, risk of RMI (marker hCV12107274, minor homozygous): 1.75 | OR, risk of RMI (marker hCV15965459, heterozygous): 0.35 | OR, risk of RMI (marker hCV15965459, major homozygous): 0.82 | OR, risk of RMI (marker hCV15965459, minor homozygous): 0.95 | OR_dom, risk of RMI (marker hCV15973230, Dominant): 0.91 | OR_het, risk of RMI (marker hCV15973230, Heterozygous): 0.91 | OR_maj, risk of RMI (marker hCV15973230, Major Homozygous): 0.60 | OR_min, risk of RMI (marker hCV15973230, Minor Homozygous): 0.71 | OR, risk of RMI (marker hCV15974589, heterozygous): 0.67 | OR, risk of RMI (marker hCV15974589, major homozygous): 0.43 | OR, risk of RMI (marker hCV15974589, minor homozygous): 1.51 | OR, risk of RMI (marker hCV16054991, heterozygous): 0.53 | OR, risk of RMI (marker hCV16054991, major homozygous): 0.88 | OR, risk of RMI (marker hCV16054991, minor homozygous): 0.43 | OR, risk of RMI (marker hCV25472673, heterozygous): 0.61 | OR, risk of RMI (marker hCV25472673, major homozygous): 1.13 | OR, risk of RMI (marker hCV25472673, minor homozygous): 0.49 | OR, risk of RMI (marker hCV25623506, heterozygous): 3.29 | OR, risk of RMI (marker hCV25623506, major homozygous): 0.65 | OR, risk of RMI (marker hCV25623506, minor homozygous): 0.00 | OR_dom, risk of RMI (marker hCV25745415, Dominant): 0.92 | OR, risk of RMI [4]: 0.73 | OR_het, risk of RMI [4]: 0.73 | OR, risk of RMI [5]: 0.56 | OR_maj, risk of RMI [5]: 0.56 | OR, risk of RMI [6]: 5.87 | OR_min, risk of RMI [6]: 5.87 | OR, risk of RMI (marker hCV25749177, heterozygous): 0.74 | OR, risk of RMI (marker hCV25749177, major homozygous): 0.57 | OR, risk of RMI (marker hCV25749177, minor homozygous): 2.81 | OR_dom, risk of RMI (marker hCV25963691, Dominant): 0.64 | OR_het, risk of RMI (marker hCV25963691, Heterozygous): 0.62 | OR_maj, risk of RMI (marker hCV25963691, Major Homozygous): 0.71 | OR_min, risk of RMI (marker hCV25963691, Minor Homozygous): 0.72 | Risk Reduction by Statin (Pravastatin vs. Placebo) OR: approximately 0.5 | Risk Reduction by Statin (Pravastatin vs. Placebo) OR (listed as Pravastatin): 0.54
